Holding throughout (format): cell-based
One assay concerns Ub-conjugated aggregates. The experiment in a line: WB autophagic flux of Ub-conjugated aggregates in HEK293T cells under proteasomal inhibition. The method, then:
Fig. 4 Targeted autophagic delivery and degradation of misfolded protein cargoes using AUTOTACs with aggregate-binding warhead. a A model illustrating the mode of action of aggregate-targeting AUTOTAC. b Chemical structures of PBA-1105, PBA-1106, Anle138b-F105 and PBA-1105b. c In vitro p62 oligomerization assay in HEK293T cells incubated with the indicated compounds in (b). d WB in HEK293T cells treated with MG132 (1 μM, 24 h), HCQ (10 μM, 24 h), PBA-1105, YTK-1105, and PBA (1 μM, 24 h). e Identical to (d), but with Anle-F105. f ICC of HeLa cells treated with HCQ (10 μM, 24 h), MG132 (2 μM, 18 h) or both in the presence of PBA-1106, YOK-1106 or PBA (1 μM, 24 h). Scale bar, 10 μm. g Quantification of (f) (n = 3, 50 cells). h ICC of HeLa cells treated with Anle138b-F105 (1 μM, 24 h). Scale bar, 10 μm. i Quantification of (h) (n = 3, 50 cells). When indicated, n = 3 biologically independent experiments each counting 50 cells. Data are presented as mean values ± SD where relevant. P-values (from a two-sided unpaired t test): ***P < 7.66E−05. Source data are provided with this paper.
Adherent cells were washed with phosphate-buffered saline (PBS) and cell pellets were lysed in SDS-based sample buffer (277.8 mM Tris-HCI, pH 6.8, 4.4% LDS, 44.4% (v/v) glycerol) containing beta-mercaptoethanol. […] Densitometry of developed bands was measured and analyzed with ImageJ (NIH, Bethesda).

A further assay concerns p62^+ERβ^+ puncta. The experiment in a line: ICC of ERβ puncta co-localization in ACHN cells. The following applies: 24 h; for ERβ-LC3 colocalization, cells of 50 cells counted: single experiments. The method, then: Cells were cultured on coverslips coated with poly-L-lysine (Sigma) to observe cellular localization of proteins. Using 4% paraformaldehyde in PBS (pH 7.4), the cells were fixed for 15 min at room temperature and washed three times for 5 min with PBS. After fixing, the cells were permeabilized with 0.5% Triton X-100 in PBS solution for 15 min and washed three times with PBS for 5 min. The cells were blocked containing 2% BSA in PBS solution for 1 h at room temperature. Subsequently, the cells were incubated with primary antibody diluted in 2% BSA/PBS solution overnight at 4 °C, followed by washing the cells three times for 10 min with PBS and incubated with Alexa Fluor-conjugated secondary antibody diluted in 2% BSA/PBS for 30 min at room temperature. Using a DAPI-containing mounting medium (Vector Laboratories), the coverslips were mounted on glass slides. Confocal images were taken by laser scanning confocal microscope 510 Meta (Zeiss) and analyzed by Zeiss LSM Image Browser (ver. 4.2.0.121). […] Quantification results are shown as mean ± S.D. or S.E.M. of three independent experiments

Assay [1] has as its system ERβ signaling (EGFR, p-ERK/ERK, p-Akt/Akt). Kind of assay: WB of ERβ downstream signaling in E2-stimulated LNCaP cells. The following applies: levels of EGFR. The text has this: To assess the therapeutic efficacy of autophagy-targeting degraders, we compared the downstream signaling of AR and ERβ in cells treated with either AUTOTACs or their cognate TBLs. Dihydrotestosterone (DHT) and estradiol (E2) are natural agonists that respectively bind AR and ERβ and induce their dimerization and nuclear translocation, resulting in transcriptional activation of downstream proteins[27],[28]. […] Next, we examined the potency of AUTOTACs in cancer cell growth and progression.
Adherent cells were washed with phosphate-buffered saline (PBS) and cell pellets were lysed in SDS-based sample buffer (277.8 mM Tris-HCI, pH 6.8, 4.4% LDS, 44.4% (v/v) glycerol) containing beta-mercaptoethanol. Alternatively, cell pellets or protein supernatants were lysed in 5X Laemmli sample buffer. Whole-cell lysates were separated using SDS-PAGE, and transferred onto polyvinyllidene difluoride membranes at 100 V for 2 h at 4 °C.

The test system of another assay is ACHN cells. The experiment in a line: Wound healing assay in ACHN cells. The following applies: wound healing, compared with p62-binding moiety or TBL. The method, then: To analyze cell migration in two dimensions, U-87 MG or ACHN cells were plated to a monolayer. Cells were scratched with a sterile 10 μl pipette tip and the debris was removed using medium. Cells were treated with compounds and incubated for different time to monitor cell behavior. Photographs were obtained using a microscope at different time point.

Molecules are shown by their SMILES. Several values for one entry are separate records, joined by “and”; a condition that tells them apart may be missing. Equal entries are not always repeated.

As for `O=C(CCCc1ccccc1)NCCOCCOCCOCCNCc1ccc(OCc2ccccc2)c(OCc2ccccc2)c1` [PBA-1105], in the assay on Ub-conjugated aggregates (1 μM 24 h, MG132 1 μM, HCQ 10 μM, control index 1), the “autophagic flux index of Ub-conjugated aggregates” value stood at 2.2. The “duration of sustained autophagic flux of Ub-conjugated aggregates” value in the assay with Ub-conjugated aggregates (1 μM, MG132) is “at least 48 h”.
On to `O[C@H](CNCCOCCOCCOc1ccc(-c2c(-c3ccccc3)nn3c(C(F)(F)F)cc(C(F)(F)F)nc23)cc1)COc1ccc(OCc2ccccc2)c(OCCCc2ccccc2)c1` [PHTPP-1304], for which the “ERβ-LC3 colocalization, AVG of cells of 50” value in the assay with p62^+ERβ^+ puncta (0.5uM) came to 5.667; in the assay with p62^+ERβ^+ puncta (2.5uM), 12.6667; with p62^+ERβ^+ puncta (10uM + HCQ) it was 39; with p62^+ERβ^+ puncta (10uM) it was 29. For the same compound, the “ERβ-LC3 colocalization, percentage AVG” value with p62^+ERβ^+ puncta (0.5uM) was 11.3333%; in the assay with p62^+ERβ^+ puncta (2.5uM) it was 25.3333%; with p62^+ERβ^+ puncta (10uM + HCQ) it was 78%; in the assay with p62^+ERβ^+ puncta (10uM) it was 58%. The “ERβ-LC3 colocalization, cells of 50 cells counted” value was 34 and 42 and 41 in the assay on p62^+ERβ^+ puncta (10uM + HCQ); 24 and 34 and 29 in the assay on p62^+ERβ^+ puncta (10uM). In addition, the “inhibition of ERβ signaling relative to its TBL” value in assay [1] is 10 folds. Also, the “inhibition of cell migration” value with ACHN cells is recorded as “more efficiently inhibited cell migration”.

The values are drawn from PMC8850458, “The AUTOTAC chemical biology platform for targeted protein degradation via the autophagy-lysosome system” (Nature Communications, 2022).
